For assay [1], the target named is T1, binding of His-XIAP(BIR2)-avi fusion protein to GST-RIPK2 fusion protein (RIPK2/XIAP) (Homo sapiens, UniProt O43353).
T1 construct: made in house; host or cells: baculovirus infected Sf9 cells
Briefly: RIPK2-XIAP binding competition PPI assay (TR-FRET). The following applies: RIPK2/XIAP binding competition PPI assay; for Emax: Amax, read-out: PPI Amax bin; for IC50: read-out: PPI IC50 bin. The method, boiled down:
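Compounds (in DMSO, 100-fold stock) incubated 120 min at 23 °C with 1 nM GST-RIPK2 (aa 1-310) and 25 nM His-XIAP(BIR2 aa 152-231)-avi, plus anti-His-XL665 and anti-GST-Tb, in pH 7.5 Tris buffer. Read-out: 665/520 nm emission ratio. Normalized to no-inhibitor (0%) and 50 nM GSK583 (−100%); Amax binned A–D.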
(TR-FRET usually uses a lanthanide donor and a delayed reading to cut background.)

The target of assay [2] is T2, GST-RIPK2 fusion protein (human RIPK2, amino acids 1-310) (Homo sapiens, UniProt O43353).
T2 construct: made in house; host or cells: baculovirus infected Sf9 cells
Briefly: RIPK2 binding competition assay (TR-FRET, Tracer 199 displacement). The conditions noted are these: 10 nM Tracer 199, 1 nM GST-RIPK2, read-out: RIPK2 IC50. The method, boiled down: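 IC50 derived from the TR-FRET emission ratio (665/620 nm, 337 nm excitation), normalized with no-inhibitor and no-enzyme controls. Incubation 45 min at 22 °C, pH 7.5 Tris buffer, with final 10 nM tracer, 1 nM Sf9-expressed GST-RIPK2 fragment (aa 1-310) and 0.5 nM Tb-labelled anti-GST.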

The test system of assay [3] is NF-κB pathway (SEAP) in THP1-Dual cells. The experiment in a line: THP-1 Dual cell SEAP assay (L18-MDP stimulated). The assay is classed as cell-based. The following applies: Homo sapiens, THP1-Dual, read-out: NF-κB THP1 IC50 bin. The method, boiled down:
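IC50 values derive from non-linear regression of % inhibition, calculated against DMSO/L18-MDP-treated wells after media-only subtraction. NF-κB SEAP activity was read at OD 620-655 nm (QUANTI-Blue, 2 h, 37 °C) from supernatants of THP1-Dual cells. Cells had been compound-treated 30 min before overnight (20-24 h) stimulation with 10 ng/mL final L18-MDP.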

These results are taken from patent publication US20260137706A1, “METHODS OF TREATING INFLAMMATORY DISEASES” (INTERLINE THERAPEUTICS, INC., priority 2023, published 2026).

T2 sequence (O43353 1-310): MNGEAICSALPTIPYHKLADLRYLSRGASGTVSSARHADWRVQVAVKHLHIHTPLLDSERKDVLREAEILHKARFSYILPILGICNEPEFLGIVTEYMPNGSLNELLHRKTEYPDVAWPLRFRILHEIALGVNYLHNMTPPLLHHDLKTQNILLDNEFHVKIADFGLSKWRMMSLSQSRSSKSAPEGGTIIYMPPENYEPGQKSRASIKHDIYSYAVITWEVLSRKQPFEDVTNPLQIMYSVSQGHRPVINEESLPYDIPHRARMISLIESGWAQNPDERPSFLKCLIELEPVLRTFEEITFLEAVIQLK
T1 sequence (O43353 1-310 limits assumed): as the sequence (O43353 1-310) above

`Cc1c(-c2cnc3cc(OCCO)c(S(=O)(=O)C(C)(C)C)cn23)cnc(N)c1F` [Example 50, 2-((3-(6-amino-5-fluoro-4-methylpyridin-3-yl)-6-(tert-butylsulfonyl)imidazo[1,2-a]pyridin-7-yl)oxy)ethan-1-ol]: the Emax in assay [1] lay in the range of 55 to 80%. Also, the figures for the IC50 in assay [1], in assay [2] and in assay [3] were greater than 20 nM, greater than 20 nM and greater than 1000 nM, respectively.

For the molecule `COc1cn2ncc(-c3cc(F)c(N)nc3F)c2nc1N1C(=O)OCC1(C)C` [Example 116, 3-(3-(6-amino-2,5-difluoropyridin-3-yl)-6-methoxypyrazolo[1,5-a]pyrimidin-5-yl)-4,4-dimethyloxazolidin-2-one], the Emax in assay [1] lay within 55 to 80%. For the same molecule, the concentration for half-maximal inhibition (IC50) is greater than 20 nM in assay [1], greater than 20 nM in assay [2] and greater than 1000 nM in assay [3].

As for `COc1cc2ncc(-c3ccc(N)nc3F)n2cc1S(=O)(=O)C1CC1` [Example 66, 5-(6-(cyclopropylsulfonyl)-7-methoxyimidazo[1,2-a]pyridin-3-yl)-6-fluoropyridin-2-amine], in assay [1], the Emax is greater than 80%. The IC50 in assay [1] is greater than 20 nM; in assay [2], greater than 20 nM; in assay [3] it was greater than 1000 nM.

Consider `CC(C)(C)S(=O)(=O)c1cn2c(-c3ccc4nccn4c3)cnc2cc1OCCO` [Example 208, 2-((6-(tert-butylsulfonyl)-[3,6′-biimidazo[1,2-a]pyridin] -7-yl)oxy)ethan-1-ol], for which the Emax in assay [1] was less than 30%. Also, the values for the IC50 in assay [1], in assay [2] and in assay [3] were greater than 20 nM, 2.5 to 20 nM and greater than 1000 nM, respectively.

For the molecule `CN(C)C(=O)c1cc2ncc(-c3cc(F)c(N)nc3F)n2cc1S(=O)(=O)C(C)(C)C` [Example 42, 3-(6-amino-2,5-difluoropyridin-3-yl)-6-(tert-butylsulfonyl)-N,N-dimethylimidazo[1,2-a]pyridine-7-carboxamide], the Emax in assay [1] was in the range of 55 to 80%. Further, the IC50 in assay [1] is greater than 20 nM; in assay [2], greater than 20 nM; in assay [3], greater than 1000 nM.

Take `CC(C)(C)S(=O)(=O)c1cn2c(-c3cnc4c(c3)C3(CC3)CN4)cnc2cc1OCCO` [Example 237, 2-((6-(tert-butylsulfonyl)-3-(1′,2′-dihydrospiro [cyclopropane-1,3′-pyrrolo[2,3-b]pyridin] -5′-yl)imidazo[1,2-a]pyridin-7-yl)oxy)ethan-1-ol]: the Emax in assay [1] is less than 30%. Moreover, the results for the IC50 in assay [1], in assay [2] and in assay [3] were greater than 20 nM, greater than 20 nM and greater than 1000 nM, respectively.

As to `COc1cn2ncc(-c3cc(F)c(OC)c(NS(=O)(=O)C4(CO)CC4)c3)c2cc1S(=O)(=O)C(C)(C)C` [Example 181, N-(5-(5-(tert-butylsulfonyl)-6-methoxypyrazolo[1,5-a]pyridin-3-yl)-3-fluoro-2-methoxyphenyl)-1-(hydroxymethyl)cyclopropane-1-sulfonamide], the Emax in assay [1] was greater than 80%. Also, the figures for the IC50 in assay [1], in assay [2] and in assay [3] were less than 1 nM, less than 1 nM and less than 50 nM, respectively.

For `COC1(COc2cc3ncc(-c4cc(F)c(N)nc4F)n3cc2S(=O)(=O)C(C)(C)C)COC1` [Example 35, 5-(6-(tert-butylsulfonyl)-7-((3-methoxyoxetan-3-yl)methoxy)imidazo[1,2-a]pyridin-3-yl)-3,6-difluoropyridin-2-amine], the Emax in assay [1] is greater than 80%. The IC50 in assay [1] lay in the range of 2.5 to 20 nM; in assay [2], 2.5 to 20 nM; in assay [3], 250 to 1000 nM.

As for `CC(C)(C)S(=O)(=O)c1cn2c(-c3cc(Cl)c(N)nc3F)cnc2cc1OCC(=O)O` [Example 299, 2-((3-(6-amino-5-chloro-2-fluoropyridin-3-yl)-6-(tert-butylsulfonyl)imidazo[1,2-a]pyridin-7-yl)oxy)acetic acid], the Emax in assay [1] is greater than 80%. The values for the IC50 in assay [1], in assay [2] and in assay [3] were greater than 20 nM, greater than 20 nM and greater than 1000 nM, respectively.

Consider `CCCS(=O)(=O)Nc1cc(-c2cnc3cc(OC)c(C4(O)CCOCC4)cn23)cc(F)c1OC` [Example 127, N-(3-fluoro-5-(6-(4-hydroxytetrahydro-2H-pyran-4-yl)-7-methoxyimidazo[1,2-a]pyridin-3-yl)-2-methoxyphenyl)propane-1-sulfonamide], for which the Emax in assay [1] is greater than 80%. Further, the IC50 was 1 to 2.5 nM in assay [1], 1 to 2.5 nM in assay [2] and 50 to 250 nM in assay [3].

Regarding `COc1cc2ncc(-c3cccc(NS(=O)(=O)C4CCN(C(=O)OC(C)(C)C)CC4)c3)n2cc1S(=O)(=O)C(C)(C)C` [Example 157, tert-butyl 4-(N-(3-(6-(tert-butylsulfonyl)-7-methoxyimidazo[1,2-a]pyridin-3-yl)phenyl)sulfamoyl)piperidine-1-carboxylate], the Emax in assay [1] fell in the range of 55 to 80%. Moreover, the IC50 in assay [1] was greater than 20 nM; in assay [2], greater than 20 nM; in assay [3] it was greater than 1000 nM.

As for `COCCn1cc(-c2cc3ncc(-c4cc(F)c(N)nc4F)n3cc2S(=O)(=O)C(C)(C)C)cn1` [Example 23, 5-(6-(tert-butylsulfonyl)-7-(1-(2-methoxyethyl)-1H-pyrazol-4-yl)imidazo[1,2-a]pyridin-3-yl)-3,6-difluoropyridin-2-amine], in assay [1], the Emax was greater than 80%. The IC50 is 2.5 to 20 nM in assay [1], 2.5 to 20 nM in assay [2] and 250 to 1000 nM in assay [3].

Regarding `CC(C)(C)S(=O)(=O)c1cn2c(-c3cc(Cl)c(N)nc3F)cnc2cc1OCCO` [Example 13, 2-((3-(6-amino-5-chloro-2-fluoropyridin-3-yl)-6-(tert-butylsulfonyl)imidazo[1,2-a]pyridin-7-yl)oxy)ethan-1-ol], in assay [1], the Emax is greater than 80%. Moreover, the IC50 in assay [1] lay in the range of 1 to 2.5 nM; in assay [2], 1 to 2.5 nM; in assay [3], 50 to 250 nM.

As for `COc1cc2ncc(-c3ccc4c(N)n[nH]c4c3)n2cc1S(=O)(=O)C(C)(C)C` [Example 103, 6-(6-(tert-butylsulfonyl)-7-methoxyimidazo[1,2-a]pyridin-3-yl)-1H-indazol-3-amine], the Emax in assay [1] was less than 30%. In addition, the IC50 is greater than 20 nM in assay [1], greater than 20 nM in assay [2] and greater than 1000 nM in assay [3].

Take `CC(C)(C)S(=O)(=O)c1cn2c(-c3cc(F)c(N)nc3F)cnc2cc1OCC1(O)COC1` [Example 38, 3-(((3-(6-amino-2,5-difluoropyridin-3-yl)-6-(tert-butylsulfonyl)imidazo[1,2-a]pyridin-7-yl)oxy)methyl)oxetan-3-ol]: the Emax in assay [1] is greater than 80%. For the same molecule, the IC50 in assay [1] lay within 2.5 to 20 nM; in assay [2] it was 1 to 2.5 nM; in assay [3] it was 50 to 250 nM.

Turning to `CC(C)(C)S(=O)(=O)c1cn2c(-c3cnc4[nH]cnc4c3)cnc2cc1OCCO` [Example 229, 2-((6-(tert-butylsulfonyl)-3-(3H-imidazo[4,5-b]pyridin-6-yl)imidazo[1,2-a]pyridin-7-yl)oxy)ethan-1-ol], in assay [1], the Emax is less than 30%. The 50% inhibitory concentration (IC50) was greater than 20 nM in assay [1], greater than 20 nM in assay [2] and greater than 1000 nM in assay [3].

As for `COCCN1CCC(C)(S(=O)(=O)c2cn3c(-c4cc(F)c(N)nc4F)cnc3cc2OC)CC1` [Example 125, 3,6-difluoro-5-(7-methoxy-6-((1-(2-methoxyethyl)-4-methylpiperidin-4-yl)sulfonyl)imidazo[1,2-a]pyridin-3-yl)pyridin-2-amine], the Emax in assay [1] is greater than 80%. Further, the IC50 in assay [1] is 2.5 to 20 nM; in assay [2] it was 2.5 to 20 nM; in assay [3], 250 to 1000 nM.

For the molecule `COc1cc2ncc(-c3ccc4nn(C)cc4c3)n2cc1S(=O)(=O)C(C)(C)C` [Example 111, 5-(6-(tert-butylsulfonyl)-7-methoxyimidazo[1,2-a]pyridin-3-yl)-2-methyl-2H-indazole], in assay [1], the Emax is less than 30%. The results for the IC50 in assay [1], in assay [2] and in assay [3] were greater than 20 nM, greater than 20 nM and greater than 1000 nM, respectively.

Consider `COc1cc2ncc(-c3cccc(NS(=O)(=O)C4CC4)c3)n2cc1S(=O)(=O)C(C)(C)C` [Example 146, N-(3-(6-(tert-butylsulfonyl)-7-methoxyimidazo[1,2-a]pyridin-3-yl)phenyl)cyclopropanesulfonamide], for which, in assay [1], the Emax was greater than 80%. The IC50 in assay [1] is 2.5 to 20 nM; in assay [2], 2.5 to 20 nM; in assay [3] it was greater than 1000 nM.

On to `COc1cc2ncc(-c3cc(F)c(N)nc3F)n2cc1S(=O)(=O)C(C)(C)CCO` [Example 62, 3-((3-(6-amino-2,5-difluoropyridin-3-yl)-7-methoxyimidazo[1,2-a]pyridin-6-yl)sulfonyl)-3-methylbutan-1-ol], for which the Emax in assay [1] was greater than 80%. Also, the values for the IC50 in assay [1], in assay [2] and in assay [3] were 2.5 to 20 nM, 2.5 to 20 nM and 250 to 1000 nM, respectively.

Broadly, the IC50 is the concentration at which inhibition is half-maximal.
